Measurements from patent US11806359B2 (priority 2020, dated 2023).

Legend:
Dengue virus = details: Cheung et al. 2014; cited from earlier work
HCV H strain NS5B = details: cited from earlier work
HEP C = details: cited from earlier work
HIV-1 = details: cited from earlier work
ADV-8 = details: cited from earlier work
ADV-11 = details: cited from earlier work
ENTV CVB1 = details: cited from earlier work
HSV-1 = details: cited from earlier work
HEP B = details: cited from earlier work
HSV-2 = details: cited from earlier work
ADV-3 = details: cited from earlier work
ENTV EV71 = details: cited from earlier work
adenovirus = assay: Antiviral activity against adenovirus; type: cell-based
SARS-CoV-2 = type: cell-based; details: FIG. 32

Compound: CC(=O)O[C@H]1C[C@H](O[C@H]2[C@@H](O)C[C@H](O[C@H]3[C@@H](O)C[C@H](O[C@H]4CC[C@@]5(C)[C@H](CC[C@@H]6[C@@H]5C[C@@H](O)[C@]5(C)[C@@H](C7=CC(=O)OC7)CC[C@]65O)C4)O[C@@H]3C)O[C@@H]2C)O[C@H](C)[C@H]1O[C@@H]1O[C@H](CO)[C@@H](O)[C@H](O)[C@H]1O [lanatoside C]
- antiviral activity against Dengue virus (Dengue virus): demonstrates antiviral activity against Dengue virus

Compound: CC1(C)CC[C@]2(C(=O)O)CC[C@]3(C)C(=CC[C@@H]4[C@@]5(C)CC[C@H](O)C(C)(C)[C@@H]5CC[C@]43C)[C@@H]2C1 [Oleanolic acid]
- anti-viral activity against HCV H strain NS5B (HCV H strain NS5B): some anti-viral activity
- anti-viral activity against HEP C (HEP C): some anti-viral activity
- anti-viral activity against HIV-1 (HIV-1): some anti-viral activity

Compound: C[C@H]1[C@H](C)CC[C@]2(C(=O)O)CC[C@]3(C)C(=CC[C@@H]4[C@@]5(C)CC[C@H](O)C(C)(C)[C@@H]5CC[C@]43C)[C@H]12 [Ursolic acid]
- anti-viral activity against HCV H strain NS5B (HCV H strain NS5B): some anti-viral activity
- anti-viral activity against ADV-8 (ADV-8): some anti-viral activity
- anti-viral activity against ADV-11 (ADV-11): some anti-viral activity
- anti-viral activity against ENTV CVB1 (ENTV CVB1): some anti-viral activity
- anti-viral activity against HSV-1 (HSV-1): some anti-viral activity
- anti-viral activity against HEP C (HEP C): some anti-viral activity
- anti-viral activity against HEP B (HEP B): some anti-viral activity
- anti-viral activity against HSV-2 (HSV-2): some anti-viral activity
- anti-viral activity against HIV-1 (HIV-1): some anti-viral activity
- anti-viral activity against ADV-3 (ADV-3): some anti-viral activity
- anti-viral activity against ENTV EV71 (ENTV EV71): some anti-viral activity

Compound: C[C@H]1O[C@@H](O[C@H]2[C@@H](O)C[C@H](O[C@H]3[C@@H](O)C[C@H](O[C@H]4CC[C@@]5(C)[C@H](CC[C@@H]6[C@@H]5C[C@@H](O)[C@]5(C)[C@@H](C7=CC(=O)OC7)CC[C@]65O)C4)O[C@@H]3C)O[C@@H]2C)C[C@H](O)[C@@H]1O [digoxin, reference compound]
- activity against adenovirus (adenovirus): inactive
- inhibition of viral replication (SARS-CoV-2): efficacy of digoxin against the virus
